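Tested at 5 concentrations; 48 h exposure; 96-well plates; endpoints linearly interpolated, else capped at highest concentration. GI50: concentration for 50% inhibition of growth.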 Activity calls are given as the source filed them. No stated cut-off is given here; in the data, active = GI50 up to about 1.1 µM and inactive = higher.
Experiments:
Assay in all cases: NCI tumour cell line growth inhibition, 48 h
SF-268 = system: SF-268
KM12 = system: KM12
NCI/ADR-RES = system: NCI/ADR-RES
HCT-15 = system: HCT-15
SN12C = system: SN12C
UO-31 = system: UO-31
SK-OV-3 = system: SK-OV-3
NCI-H226 = system: NCI-H226
MDA-N = system: MDA-N
ACHN = system: ACHN
PC-3 = system: PC-3
SF-295 = system: SF-295
NCI-H522 = system: NCI-H522
MOLT-4 = system: MOLT-4
HOP-62 = system: HOP-62
MDA-MB-231 = system: MDA-MB-231
K562 = system: K562
SNB-75 = system: SNB-75
HCT-116 = system: HCT-116
BT-549 = system: BT-549
A498 = system: A498
HT-29 = system: HT-29
SK-MEL-2 = system: SK-MEL-2
SK-MEL-5 = system: SK-MEL-5
RPMI-8226 = system: RPMI-8226
RXF 393 = system: RXF 393
Hs-578T = system: Hs-578T
SW-620 = system: SW-620
A549 = system: A549
CCRF-CEM = system: CCRF-CEM
NCI-H23 = system: NCI-H23
UACC-62 = system: UACC-62
OVCAR-5 = system: OVCAR-5
CAKI-1 = system: CAKI-1
SNB-19 = system: SNB-19
LOX IMVI = system: LOX IMVI
OVCAR-8 = system: OVCAR-8
IGROV-1 = system: IGROV-1
OVCAR-3 = system: OVCAR-3
NCI-H460 = system: NCI-H460
TK-10 = system: TK-10
UACC-257 = system: UACC-257
OVCAR-4 = system: OVCAR-4
M14 = system: M14
HL-60 = system: HL-60
MDA-MB-435 = system: MDA-MB-435
SK-MEL-28 = system: SK-MEL-28
Malme-3M = system: Malme-3M
DU-145 = system: DU-145
EKVX = system: EKVX
U-251 = system: U-251
COLO 205 = system: COLO 205
786-0 = system: 786-0
SR = system: SR
HOP-92 = system: HOP-92
SF-539 = system: SF-539
T47D = system: T47D
HCC 2998 = system: HCC 2998
MCF7 = system: MCF7

`c1ccc(C2CC(NC3CCCCC3)=Nc3ccccc3N2)cc1` (centres undefined) was tested, and the GI50 (SF-268) was 65.3 µM (inactive), the GI50 (KM12) was 40.8 µM (inactive) and the GI50 (NCI/ADR-RES) was > 100 µM (inactive). The GI50 (HCT-15) was 94.2 µM, the GI50 (SN12C) was > 100 µM (inactive) and the GI50 (UO-31) was > 100 µM (inactive). The GI50 (SK-OV-3) was > 100 µM (inactive), the GI50 (NCI-H226) was > 100 µM (inactive) and the GI50 (MDA-N) was 75.9 µM (inactive). The GI50 (ACHN) was > 100 µM (inactive), the GI50 (PC-3) was 33.6 µM (inactive) and the GI50 (SF-295) was 44 µM (inactive). The GI50 (NCI-H522) was 22.8 µM (inactive), the GI50 (MOLT-4) was 17.7 µM (inactive) and the GI50 (HOP-62) was > 100 µM (inactive). The GI50 (MDA-MB-231) was 24.5 µM (inactive), the GI50 (K562) was 19.3 µM (inactive) and the GI50 (SNB-75) was 16.4 µM (inactive). The GI50 (HCT-116) was 73.5 µM (inactive), the GI50 (BT-549) was 54.8 µM (inactive) and the GI50 (A498) was 18.8 µM (inactive). The GI50 (HT-29) was 24.2 µM (inactive), the GI50 (SK-MEL-2) was > 100 µM (inactive) and the GI50 (SK-MEL-5) was 18.7 µM (inactive). For the same compound, the GI50 (RPMI-8226) was 34 µM (inactive), the GI50 (RXF 393) was 31.7 µM (inactive) and the GI50 (Hs-578T) was 28.4 µM (inactive). For the same compound, the GI50 (SW-620) was > 100 µM (inactive), the GI50 (A549) was > 100 µM (inactive) and the GI50 (CCRF-CEM) was 34.9 µM (inactive). The GI50 (NCI-H23) was 54.1 µM (inactive), the GI50 (UACC-62) was 31.2 µM (inactive) and the GI50 (OVCAR-5) was 78.2 µM (inactive). For the same compound, the GI50 (CAKI-1) was 98.9 µM (inactive), the GI50 (SNB-19) was > 100 µM (inactive) and the GI50 (LOX IMVI) was 20.4 µM (inactive). For the same compound, the GI50 (OVCAR-8) was > 100 µM (inactive), the GI50 (IGROV-1) was 27.7 µM (inactive) and the GI50 (OVCAR-3) was > 100 µM (inactive). For the same compound, the GI50 (NCI-H460) was 46.9 µM (inactive), the GI50 (TK-10) was > 100 µM (inactive) and the GI50 (UACC-257) was 47.5 µM (inactive). The GI50 (OVCAR-4) was > 100 µM (inactive), the GI50 (M14) was 27.4 µM (inactive) and the GI50 (HL-60) was 25.8 µM (inactive). The GI50 (MDA-MB-435) was 24.3 µM (inactive), the GI50 (SK-MEL-28) was 45.2 µM (inactive) and the GI50 (Malme-3M) was 15.6 µM (inactive). The GI50 (DU-145) was > 100 µM (inactive), the GI50 (EKVX) was 54.8 µM (inactive) and the GI50 (U-251) was 56.9 µM (inactive). The GI50 (COLO 205) was 24.2 µM (inactive) and the GI50 (786-0) was > 100 µM (inactive).
In the case of `COC(=O)CSc1cc(Cl)c(C)cc1S(=O)(=O)Nc1n[nH]c(N)n1`, the GI50 (SF-268) is reported as > 10 µM (inactive), the GI50 (KM12) is reported as > 10 µM (inactive) and the GI50 (NCI/ADR-RES) is reported as > 10 µM (inactive). For the same compound, the GI50 (HCT-15) was over 10 µM, the GI50 (SN12C) was > 10 µM (inactive) and the GI50 (SR) was > 10 µM (inactive). For the same compound, the GI50 (UO-31) was > 10 µM (inactive), the GI50 (HOP-92) was > 10 µM (inactive) and the GI50 (SK-OV-3) was > 10 µM (inactive). The GI50 (NCI-H226) was > 10 µM (inactive), the GI50 (MDA-N) was > 10 µM (inactive) and the GI50 (ACHN) was > 10 µM (inactive). For the same compound, the GI50 (PC-3) was > 10 µM (inactive), the GI50 (SF-295) was > 10 µM (inactive) and the GI50 (SF-539) was > 10 µM (inactive). The GI50 (NCI-H522) was > 10 µM (inactive), the GI50 (MOLT-4) was > 10 µM (inactive) and the GI50 (HOP-62) was > 10 µM (inactive). The GI50 (T47D) was > 10 µM (inactive), the GI50 (K562) was > 10 µM (inactive) and the GI50 (SNB-75) was > 10 µM (inactive). The GI50 (HCT-116) was > 10 µM (inactive), the GI50 (HCC 2998) was > 10 µM (inactive) and the GI50 (BT-549) was > 10 µM (inactive). For the same compound, the GI50 (A498) was > 10 µM (inactive), the GI50 (HT-29) was > 10 µM (inactive) and the GI50 (SK-MEL-2) was > 10 µM (inactive). For the same compound, the GI50 (SK-MEL-5) was > 10 µM (inactive), the GI50 (RPMI-8226) was > 10 µM (inactive) and the GI50 (RXF 393) was > 10 µM (inactive). The GI50 (Hs-578T) was > 10 µM (inactive), the GI50 (SW-620) was > 10 µM (inactive) and the GI50 (A549) was > 10 µM (inactive). The GI50 (CCRF-CEM) was > 10 µM (inactive), the GI50 (NCI-H23) was > 10 µM (inactive) and the GI50 (OVCAR-5) was > 10 µM (inactive). The GI50 (CAKI-1) was > 10 µM (inactive), the GI50 (SNB-19) was > 10 µM (inactive) and the GI50 (LOX IMVI) was > 10 µM (inactive). The GI50 (OVCAR-8) was > 10 µM (inactive), the GI50 (IGROV-1) was > 10 µM (inactive) and the GI50 (OVCAR-3) was > 10 µM (inactive). For the same compound, the GI50 (NCI-H460) was > 10 µM (inactive), the GI50 (TK-10) was > 10 µM (inactive) and the GI50 (UACC-257) was > 10 µM (inactive). The GI50 (OVCAR-4) was > 10 µM (inactive), the GI50 (M14) was > 10 µM (inactive) and the GI50 (MCF7) was > 10 µM (inactive). For the same compound, the GI50 (HL-60) was > 10 µM (inactive), the GI50 (SK-MEL-28) was > 10 µM (inactive) and the GI50 (Malme-3M) was > 10 µM (inactive). The GI50 (DU-145) was > 10 µM (inactive), the GI50 (EKVX) was > 10 µM (inactive) and the GI50 (U-251) was > 10 µM (inactive). For the same compound, the GI50 (COLO 205) was > 10 µM (inactive) and the GI50 (786-0) was > 10 µM (inactive).

Source: ChEMBL document CHEMBL1201862, “PubChem BioAssay data set” (2004)
